Our source for the inhibition and IC50 values is patent US8450348B2, “Derivatives of squaric acid with anti-proliferative activity” (Forma TM, LLC, priority 2007, dated 2013).

The structures appear in SMILES notation.

Holding throughout (format): cell-based
One assay relates to A-549. Description: SRB assay, % inhibition of tumor cell growth (Example 61). Conditions: Homo sapiens, A549, 48 hours, vs DMSO-treated cells. The procedure: (§1) 3,000-15,000 cells/well were exposed to the test compounds at a concentration of 1 μM for 48 hours, and cytotoxicity was measured using the SRB assay according to Shekan et al (J Natl Cancer Inst (1990) 82, 1107-112). Briefly, cells were plated in 96 well dishes 24 hours prior to compound addition. The assay was terminated with the addition of cold TCA to a final concentration of 10% and the plates were incubated for one hour at 4° C. The plates were then washed 5 times with water and 100 μl of a Sulforhodamine B solution ([…]) was added to each well. The plate was then incubated for 10 minutes at room temperature before removal of unbound dye by washing with 1% acetic acid. The bound dye was solubilized with 10 mM Trizma base and the absorbance read at OD570. Inhibitory activity of the compounds was calculated as % inhibition compared to cells treated with the solvent (DMSO). Table 2 represents the growth inhibitory activity of certain compounds of the invention across a number of tumor cell lines.

A further assay has as its system PC-3. Described as above. Conditions: Homo sapiens, 48 hours, vs DMSO-treated cells. On the procedure: as §1
In assay [1] the test system is A2780. The description is as above. Conditions: Homo sapiens, 48 hours, vs DMSO-treated cells. The procedure: as §1
For assay [2], the system named is SW-620. The description is as above. The following applies: Homo sapiens, 48 hours, vs DMSO-treated cells. The procedure:
as §1

Assay [3] deals with HCT-116. The description is as above. The following applies: Homo sapiens, 48 hours, vs DMSO-treated cells. On the procedure: as §1
Assay [4] concerns A2780. The assay is described as follows: IC50 determination, SRB assay (Example 62). Conditions: Homo sapiens, estimated from fitted curve, growth inhibition. The procedure:
as §1
(§2) The assay was performed similar to example 61. However, test compounds were added at various concentrations, such as from 0.001 to about 0.1 μM, from 0.1 to about 10 μM, or from 1 to about 10 μM, as the need may be, in order to estimate the IC50 values. IC50 values were determined by plotting the percentage inhibitory activity for each concentration, fitting a curve using appropriate software and estimating the concentration at which 50% inhibition of growth would occur.

Assay [5] concerns HCT-116. The assay is described as follows: IC50 determination, SRB assay (Example 62). The following applies: Homo sapiens, estimated from fitted curve, growth inhibition. On the procedure: as §1, §2
Assay [6] relates to MCF7. Description: IC50 determination, SRB assay (Example 62). The following applies: Homo sapiens, estimated from fitted curve, growth inhibition. On the procedure:
as §1, §2

Assay [7] relates to MCF7. The assay is described as follows: SRB assay, % inhibition of tumor cell growth (Example 61). Conditions: Homo sapiens, 48 hours, vs DMSO-treated cells. The procedure: as §1
In assay [8] the test system is SW-620. Description: IC50 determination, SRB assay (Example 62). The following applies: Homo sapiens, estimated from fitted curve, growth inhibition. The procedure:
as §1, §2

In general, inhibition refers to the drop in the measured response relative to a control, in per cent. A higher inhibition goes with a response far below the control. As to `O=c1c(NCc2ccc(Oc3ccccc3)cc2)c(Nc2cccnc2)c1=O` [SQ-34, 3-(4-Phenoxy-benzylamino)-4-(pyridin-3-ylamino)-cyclobut-3-ene-1,2-dione], the inhibition at 1 µM is 0% in the assay with A-549; over 0% in the assay with PC-3; over 20% in the assay with A2780 [1]; 0% in the assay with SW-620 [2]; over 20% with HCT-116 [3].
For orientation: IC50 means the point on the concentration scale where inhibition reaches its midpoint. Regarding `O=c1c(NCCCCCCOc2ccc(Cl)cc2)c(Nc2ccncc2)c1=O` [SQ-7B], the inhibition at 1 µM with PC-3 was over 50%; in the assay with A2780 [1] it was over 80%; with SW-620 [2] it was over 50%; in the assay on HCT-116 [3], over 80%. The 50% inhibitory concentration (IC50) in the assay with A2780 [4], in the assay with HCT-116 [5] and in the assay with MCF7 [6] was under 0.1 µM each time.
For the molecule `O=c1c(NCCc2ccc(Oc3ccccc3)cc2)c(Nc2cccnc2)c1=O` [SQ-5, 3-[2-(4-Phenoxyphenyl)-ethylamino]-4-(pyridin-3-yl-amino)-cyclobut-3-ene-1,2-dione], the inhibition at 1 µM with PC-3 is over 50%; in the assay on A2780 [1], over 80%; with SW-620 [2], 0%; in the assay on HCT-116 [3], over 80%; in the assay on MCF7 [7], over 50%. Further, the figures for the IC50 in the assay on SW-620 [8], with HCT-116 [5] and in the assay on MCF7 [6] were under 2 µM, under 0.1 µM and under 10 µM, respectively.
Regarding `O=c1c(NCCCCCCOc2ccc(Cl)c(Cl)c2)c(Nc2ccncc2)c1=O` [SQ-15], the inhibition at 1 µM with A-549 is over 20%; with PC-3, over 50%; in the assay with A2780 [1], over 80%; with SW-620 [2], over 20%; in the assay on HCT-116 [3], over 80%; in the assay with MCF7 [7] it was over 20%. For the same molecule, the IC50 was under 0.5 µM in the assay with SW-620 [8] and under 0.1 µM with HCT-116 [5].
